# According to US9670227B2, “Thienopyrimidine derivatives, a process for their preparation and pharmaceutical compositions containing them” (LES LABORATOIRES SERVIER, priority 2013, dated 2017):
# Read-outs that look alike come from different tables or passages of the source.
# Legend:
# [1] = molecular target: Mcl-1 protein (UniProtKB primary accession number: Q07820) (Homo sapiens, UniProt Q07820); assay: Inhibition of Mcl-1 by fluorescence polarisation, Method 1; type: binding; settings: read-out: IC50 (M) Mcl-1 FP
# Sequence of Mcl-1 protein (Q07820 whole entry): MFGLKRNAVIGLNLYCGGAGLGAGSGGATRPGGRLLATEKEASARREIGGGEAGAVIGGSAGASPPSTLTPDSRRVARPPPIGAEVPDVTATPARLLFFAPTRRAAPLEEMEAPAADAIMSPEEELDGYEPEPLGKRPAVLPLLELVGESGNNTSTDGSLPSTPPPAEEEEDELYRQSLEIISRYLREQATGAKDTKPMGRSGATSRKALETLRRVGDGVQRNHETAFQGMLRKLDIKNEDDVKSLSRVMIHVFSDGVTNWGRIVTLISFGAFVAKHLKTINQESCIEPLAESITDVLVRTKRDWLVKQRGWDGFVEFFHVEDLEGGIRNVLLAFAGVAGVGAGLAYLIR
# In short: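 Binding was measured as fluorescence polarisation of a fluorescein-labelled ligand (1 nM) displaced from Mcl-1 (5 nM), both final. Compounds ran as 11-point series with final DMSO at 5%.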
# [2] = tested on: H929 multiple myeloma tumour line; assay: In vitro cytotoxicity, Microculture Tetrazolium Assay; type: cell-based; settings: H929 cells, 48 hours exposure, MTT, read-out: IC50 (μM) MTT H929
# Experimental: The cytotoxicity studies were carried out on the H929 multiple myeloma tumour line.
# The cells are distributed onto microplates and exposed to the test compounds for 48 hours.
# [3] = fluorescence polarisation test, Method 2 values are underlined in the patent (underlining not visible here)
# [4] = fluorescence polarisation, Method 1, or Method 2
Structure (SMILES),"IC50 [1, 3] [M]","IC50 [1, 4] [M]","IC50 ([2]; Homo sapiens, NCI-H929, 48 h) [µM]",IC50 [2] [µM]
"Cc1c(-c2c(-c3ccc(F)cc3)sc3ncnc(OC(Cc4ccccc4OCc4ccnn4C4CCCC4)C(=O)O)c23)ccc(OCCN2CCN(C)CC2)c1Cl [Example 72, (2R)-2-{[(5Sa)-5-{3-chloro-2-methyl-4-[2-(4-methylpiperazin-1-yl)ethoxy]phenyl}-6-(4-fluorophenyl)thieno[2,3-d]pyrimidin-4-yl]oxy}-3-{2-[(1-cyclopentyl-1H-pyrazol-5-yl)methoxy]phenyl}propanoic acid]",9.3e-09,,0.04,
"Cc1c(-c2c(-c3ccc(F)cc3)sc3ncnc(OC(Cc4ccccc4OCc4ccnc(C(C)C)n4)C(=O)O)c23)ccc(OCCN2CCN(C)CC2)c1Cl [Example 24, (2R)-2-{[(5Sa)-5-{3-chloro-2-methyl-4-[2-(4-methylpiperazin-1-yl)ethoxy]phenyl}-6-(4-fluorophenyl)thieno[2,3-d]pyrimidin-4-yl]oxy}-3-(2-{[2-(propan-2-yl)pyrimidin-4-yl]methoxy}phenyl)propanoic acid]",8.1e-09,,0.012,
"Cc1c(-c2c(-c3cccn3C)sc3ncnc(OC(Cc4ccccc4)C(=O)O)c23)ccc(OCCN2CCN(C)CC2)c1Cl [Example 503, (2R)-2-{[(5Sa)-5-{3-chloro-2-methyl-4-[2-(4-methylpiperazin-1-yl)ethoxy]phenyl}-6-(1-methyl-1H-pyrrol-2-yl)thieno[2,3-d]pyrimidin-4-yl]oxy}-3-phenylpropanoic acid]",,5e-07,7.02,
"COc1ccccc1CC(Oc1ncnc2sc(-c3ccco3)c(-c3ccc(OC4CCCN(C)C4)c(Cl)c3C)c12)C(=O)O (single isomer, unassigned) [Example 302, (2R)-2-{[(5Sa)-5-{3-chloro-2-methyl-4-[((3S or R)-1-methylpiperidin-3-yl)oxy]phenyl}-6-(furan-2-yl)thieno[2,3-d]pyrimidin-4-yl]oxy}-3-(2-methoxyphenyl)propanoic acid]",1.4e-08,,,1.59

# Now from value to molecule, other results behind:
"IC50 [1, 3] [M]","IC50 [1, 4] [M]",Structure (SMILES),"IC50 ([2]; Homo sapiens, NCI-H929, 48 h) [µM]",IC50 [2] [µM]
,8.2e-09,"CCCCn1nccc1COc1ccccc1CC(Oc1ncnc2sc(-c3ccc(-c4ccc(Cl)nc4)nc3)c(-c3ccc(OCCN4CCN(C)CC4)c(Cl)c3C)c12)C(=O)O [Example 605, (2R)-3-{2-[(1-butyl-1H-pyrazol-5-yl)methoxy]phenyl}-2-{[6-(6′-chloro-2,3′-bipyridin-5-yl)-(5Sa)-5-{3-chloro-2-methyl-4-[2-(4-methylpiperazin-1-yl)ethoxy]phenyl}thieno[2,3-d]pyrimidin-4-yl]oxy}propanoic acid]",0.254,
,4.5e-09,"CCOc1cccc(-c2sc3ncnc(OC(Cc4ccccc4OC)C(=O)O)c3c2-c2ccc(OCCN3CCN(C)CC3)c(Cl)c2C)c1 [Example 557, (2R)-2-{[(5Sa)-5-{3-chloro-2-methyl-4-[2-(4-methylpiperazin-1-yl)ethoxy]phenyl}-6-(3-ethoxyphenyl)thieno[2,3-d]pyrimidin-4-yl]oxy}-3-(2-methoxyphenyl)propanoic acid]",0.475,
,8e-09,"COc1ccccc1CC(Oc1ncnc2sc(-c3cccc(OCCN4CCOCC4)c3)c(-c3ccc(OCCN4CCN(C)CC4)c(Cl)c3C)c12)C(=O)O [Example 588, (2R)-2-[((5Sa)-5-{3-chloro-2-methyl-4-[2-(4-methylpiperazin-1-yl)ethoxy]phenyl}-6-{3-[2-(morpholin-4-yl)ethoxy]phenyl}thieno[2,3-d]pyrimidin-4-yl)oxy]-3-(2-methoxyphenyl)propanoic acid]",0.256,
,9.06e-09,"COc1ccccc1-c1nccc(COc2ccccc2CC(Oc2ncnc3sc(-c4ccc(Oc5ccccc5)cc4)c(-c4ccc(OCCN5CCN(C)CC5)c(Cl)c4C)c23)C(=O)O)n1 (single isomer, unassigned) [Example 759]",0.054,
,3.3e-08,"C#Cc1cccc(-c2sc3ncnc(OC(Cc4ccccc4OC)C(=O)O)c3c2-c2ccc(OCCN3CCN(C)CC3)c(Cl)c2C)c1 [Example 547, (2R)-2-{[(5Sa)-5-{3-chloro-2-methyl-4-[2-(4-methylpiperazin-1-yl)ethoxy]phenyl}-6-(3-ethynylphenyl)thieno[2,3-d]pyrimidin-4-yl]oxy}-3-(2-methoxyphenyl)propanoic acid]",0.475,
